# Measurements as given in publication PMC7845594, “Novel Immune Modulators Enhance Caenorhabditis elegans Resistance to Multiple Pathogens” (mSphere, 2021).
# System: C. elegans transcriptome
# Test: Transcriptome profiling (Affymetrix microarrays), differentially expressed genes
# Type: in vivo, Caenorhabditis elegans
# Settings: for Fold Change: downregulated genes
# Protocol: To gain additional insight into the effect of LK molecules on C. elegans, young-adult, wild-type worms were treated with each drug at 100 µM for 8 h in the absence of pathogen. RNA was collected, and transcriptome profiling was performed.
# Data were determined using Affymetrix microarrays, as described in Materials and Methods. Download Table S3, XLSX file, 0.07 MB.
# Transcriptome profiling was performed on ∼6,000 wild-type, young adult worms incubated with either LK molecules or DMSO for 8 h. RNA isolation was performed using TRIzol extraction, followed by cleanup using RNeasy columns according to the manufacturer’s protocol. Each condition was analyzed in triplicate. Microarray data have been deposited in the GEO database, accession number GSE137516. […] Clustering and generation of the heat map was performed using Cluster 3.0 ([98]) and Treeview ([99]), respectively. Fold change of genes were normalized to average fold change of that gene over all clustered conditions. Genes and conditions were clustered using Euclidean distance and average linkages. […] Microarray data for non-LK molecules were collected from GEO omnibus. WormEXP was used as a secondary method for confirming statistical significance of potential pathways stimulated by each of the LK molecules ([100]). Gene ontologies were generated using DAVID ([101], [102]).
# [1] = Downregulated genes, Affy_ID 171867_x_at
# [2] = Downregulated genes, Affy_ID 176276_s_at
smiles,measurement,setting,value
CCN(CC)/N=N/c1ccc(C(=O)O)cc1 [LK35],Fold Change,"Affy_ID 171811_s_at, listed under genes K01D12.7 (LK34, LK38), C57047 (LK35), K01D12.15 (LK38)",0.292
same,Fold Change,"Affy_ID 171867_x_at, listed under genes C09B9.6, F36H12.7, K07F5.1, R05F9.13, R13H9.2, R13H9.4, T13F2.10, T13F2.11, Y59E9AR.1, Y59E9AR.7, ZK354.1",0.2025
same,Fold Change,"Affy_ID 171880_x_at, listed under genes C24D10.7 and C24D10.8",0.4703
same,"Fold Change, gene Y59E9AR.1",[1],0.2025
same,"Fold Change, gene Y59E9AR.7",[1],0.2025
same,"Fold Change, gene ZK354.1",[1],0.2025
same,"Fold Change, gene ZK354.10",[1],0.2025
same,"Fold Change, gene ZK354.11",[1],0.2025
same,"Fold Change, gene ZK354.4",[1],0.2025
same,"Fold Change, gene ZK354.5",[1],0.2025
same,"Fold Change, gene ZK131.11","Downregulated genes, Affy_ID 171916_s_at",0.3792
same,"Fold Change, gene Y59H11AM.1","Downregulated genes, Affy_ID 172113_x_at",0.2252
same,"Fold Change, gene Y71H2AL.C","Downregulated genes, Affy_ID 172177_x_at",0.4472
same,"Fold Change, gene ZK525.1","Downregulated genes, Affy_ID 172214_x_at",0.281
same,"Fold Change, gene T23B7.1","Downregulated genes, Affy_ID 172486_x_at",0.3276
same,"Fold Change, gene Y105C5A.13","Downregulated genes, Affy_ID 172627_x_at",0.07461
same,"Fold Change, gene T28H11.6","Downregulated genes, Affy_ID 172704_x_at",0.2084
same,"Fold Change, gene ZK1248.4","Downregulated genes, Affy_ID 172734_x_at",0.2437
same,"Fold Change, gene ZK546.3","Downregulated genes, Affy_ID 172798_x_at",0.1152
same,"Fold Change, gene ZK131.7","Downregulated genes, Affy_ID 172871_x_at",0.3252
same,"Fold Change, gene ZK1248.6","Downregulated genes, Affy_ID 172887_x_at",0.1434
same,"Fold Change, gene ZK546.6","Downregulated genes, Affy_ID 172900_x_at",0.1383
same,"Fold Change, gene ZK1251.6","Downregulated genes, Affy_ID 172938_x_at",0.1992
same,"Fold Change, gene Y43F8B.2","Downregulated genes, Affy_ID 173326_s_at",0.3741
same,"Fold Change, gene T27E4.7","Downregulated genes, Affy_ID 173756_at",0.207
same,"Fold Change, gene Y54G2A.7","Downregulated genes, Affy_ID 174102_at",0.2822
same,"Fold Change, gene ZK809.8","Downregulated genes, Affy_ID 175557_at",0.3895
same,"Fold Change, gene ZK112.1","Downregulated genes, Affy_ID 175995_at",0.2683
same,"Fold Change, gene Y119D3B.13","Downregulated genes, Affy_ID 176131_at",0.2184
same,"Fold Change, gene Y69A2AR.12",[2],0.2706
same,"Fold Change, gene Y69A2AR.25",[2],0.2706
same,"Fold Change, gene Y71H2AM.13","Downregulated genes, Affy_ID 176285_s_at",0.4282
same,"Fold Change, gene Y71G12B.4","Downregulated genes, Affy_ID 176544_at",0.3363
same,"Fold Change, gene Y54G2A.14","Downregulated genes, Affy_ID 177004_s_at",0.3979
same,"Fold Change, gene Y73B6BL.24","Downregulated genes, Affy_ID 177183_s_at",0.3786
same,"Fold Change, gene Y71H2AL.1","Downregulated genes, Affy_ID 177190_at",0.2701
same,"Fold Change, gene ZK669.2","Downregulated genes, Affy_ID 179491_at",0.1961
same,"Fold Change, gene ZK550.2","Downregulated genes, Affy_ID 179513_at",0.2553
same,"Fold Change, gene T23F4.3","Downregulated genes, Affy_ID 179815_at",0.0609
same,"Fold Change, gene Y51H4A.7","Downregulated genes, Affy_ID 180145_s_at",0.2617
same,"Fold Change, gene T23F4.1","Downregulated genes, Affy_ID 180223_s_at",0.03953
same,"Fold Change, gene W04B5.2","Downregulated genes, Affy_ID 180561_at",0.4474
same,"Fold Change, gene ZK484.5","Downregulated genes, Affy_ID 182193_at",0.3211
same,"Fold Change, gene Y44A6C.1","Downregulated genes, Affy_ID 182843_at",0.3152
same,"Fold Change, gene Y45F10A.5","Downregulated genes, Affy_ID 184558_at",0.1919
same,"Fold Change, gene T23B12.8","Downregulated genes, Affy_ID 184855_at",0.1557
same,"Fold Change, gene Y105C5B.5","Downregulated genes, Affy_ID 185106_at",0.254
same,"Fold Change, gene W01A11.6","Downregulated genes, Affy_ID 186120_at",0.4275
same,"Fold Change, gene T27A10.7","Downregulated genes, Affy_ID 186153_s_at",0.3382
same,"Fold Change, gene Y18D10A.23","Downregulated genes, Affy_ID 186886_s_at",0.3476
same,"Fold Change, gene Y105C5A.24","Downregulated genes, Affy_ID 187121_at",0.3662
same,"Fold Change, gene ZC416.6","Downregulated genes, Affy_ID 188470_s_at",0.2458
same,"Fold Change, gene T25C12.3","Downregulated genes, Affy_ID 188823_s_at",0.2936
same,"Fold Change, gene ZK593.1","Downregulated genes, Affy_ID 189095_at",0.3436
same,"Fold Change, gene ZK484.2","Downregulated genes, Affy_ID 189882_at",0.286
same,"Fold Change, gene ZK131.4","Downregulated genes, Affy_ID 190307_s_at",0.2791
same,"Fold Change, gene Y40D12A.2","Downregulated genes, Affy_ID 191017_at",0.3228
same,"Fold Change, gene W07B8.5","Downregulated genes, Affy_ID 191887_s_at",0.2934
same,"Fold Change, gene Y51A2D.13","Downregulated genes, Affy_ID 192992_at",0.2251
same,"Fold Change, gene Y69E1A.5","Downregulated genes, Affy_ID 193144_at",0.316
same,"Fold Change, gene Y111B2A.13","Downregulated genes, Affy_ID 193715_at",0.4867
same,"Fold Change, gene Y48A6B.7","Downregulated genes, Affy_ID 193926_at",0.205
same,"Fold Change, gene ZK666.7","Downregulated genes, Affy_ID 194066_s_at",0.1175
same,Fold Change,"Gene AC3.7, Affy_ID 190879_at",0.1754
same,Fold Change,"Gene B0035.13, Affy_ID 188123_at",0.2664
same,Fold Change,"Gene C02F5.7, Affy_ID 191772_at",0.3854
same,Fold Change,"Gene C04G2.4, Affy_ID 172853_x_at",0.1724
same,Fold Change,"Gene C05C10.4, Affy_ID 189921_at",0.2517
same,Fold Change,"Gene C05C12.3, Affy_ID 183355_s_at",0.2041
same,Fold Change,"Gene C06A12.3, Affy_ID 183322_at",0.4777
same,Fold Change,"Gene C06G3.5, Affy_ID 189941_at",0.4389
same,Fold Change,"Gene C08E3.1, Affy_ID 172309_x_at",0.09218
same,Fold Change,"Gene C08E3.13, Affy_ID 172565_x_at",0.08084
same,Fold Change,"Gene C08F11.13, Affy_ID 175229_at",0.2613
same,Fold Change,"Gene C14C6.2, Affy_ID 183566_at",0.2902
same,Fold Change,"Gene C17B7.2, Affy_ID 181325_s_at",0.2818
same,Fold Change,"Gene C18G1.2, Affy_ID 191147_at",0.4346
same,Fold Change,"Gene C18H9.6, Affy_ID 187412_at",0.3068
same,Fold Change,"Gene C24A3.6, Affy_ID 175541_at",0.3015
same,Fold Change,"Gene C27H5.4, Affy_ID 181334_s_at",0.3156
